In PubChem BioAssay AID1198 (NMMLSC, 2008) one finds side scatter activation and EC50 data, which are given here for 83 compounds.

Calls of active or inactive are those of the source.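 How the source made its calls: active means EC50 under 10 microM for raising side scatter, a sign of cell differentiation; inactive means the rest, including fits that never converged.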

System in one assay: not listed separately
In words: LNCaP side scatter shift induction by compounds – cell-based, flow cytometry, side scatter granularity, dose response (AID 1198). The settings on record: LNCaP side scatter shift, flow cytometry, 4 days; at 30 µM (top of the series).
On to `C[C@H]1CCC/C=C/C2C[C@H](O)CC2[C@H](O)/C=C/C(=O)O1` (stereo partly drawn), for which the side scatter activation was 0% (inactive).
On the same count and under the same terms, as for `CCN1CCCC1CNC(=O)c1cc2c(-c3ccc(Cl)cc3)nn(C)c2s1` (stereo not drawn), the figure is 84.3% (inactive); as for `CCc1ccc(-c2nc(CN3CCC(C(=O)NCc4ccc(F)cc4)CC3)c(C)o2)cc1`, 0% (inactive).
Same read-out and setting: as for `CCCS(=O)(=O)N1CCCC(C(=O)NCCCN2CCN(c3ccc(F)cc3)CC2)C1` (stereo not drawn), the figure is 1.98% (inactive); as for `CCOC(=O)c1c(C)n(C)c2ccc(OCC(O)CNC(CC)CO)cc12` (stereo not drawn), 38.5% (inactive).
Still for that read-out and setting: as for `Cn1c(=O)[nH]c(=O)c2c1nc(Br)n2CCCSc1nc2ccccc2o1`, the figure is 1.98% (inactive).
In the case of `Cc1ccc(Cl)cc1N1CCN(C(=O)c2cc3c(=O)n(C)c4ccccc4c3n2C)CC1`, the side scatter activation was 0% (inactive).
Still for that read-out and setting: as for `COc1ccc(-c2cc(C(F)(F)F)nc(N3CCN(Cc4ccccc4)CC3)n2)cc1OC`, the figure is 44.4% (inactive); as for `CCOc1ccc(NC(=O)COc2nsnc2N2CCCCC2)cc1`, 0% (inactive).
Same read-out and setting: as for `CC(C)N1CCC2(CC1)N=C(c1ccc3c(c1)OCO3)CC(c1cc(Cl)ccc1O)N2` (stereo not drawn), the figure is 1.98% (inactive); as for `COc1ccc2cc3cc(C(=O)Nc4ccccc4N4CCN(C)CC4)oc3nc2c1`, 44.4% (inactive); as for `Cc1ccc(Nc2cc(=O)n(C3CCCCC3)c(=O)[nH]2)cc1C`, 0% (inactive).
In the case of `COc1ccccc1N1CCN(c2nc3ccccc3nc2C(C#N)C(=O)OC(C)C)CC1` (stereo not drawn), the side scatter activation is 44.4% (inactive).
Same read-out and setting: as for `O=C(CCN1C(=O)COc2ccccc21)NCCCN1CCN(c2ccc(F)cc2)CC1`, the figure is 40.2% (inactive).
As to `COc1ccc(Cc2nc(-c3ccc(-n4cccc4)cc3)no2)cc1OC`, the side scatter activation is 1.98% (inactive).
On to `CN(C)CCCN1c2ccccc2CCc2ccc(Cl)cc21`, for which the side scatter activation was 73% (inactive).
The same measure, in the same setting: as for `COc1ccc(N2CCN(CCCNC(=O)c3cc4sccc4n3C)CC2)cc1`, the figure is 40.2% (inactive); as for `CCCc1cc(-c2n[nH]c(C)c2-c2ccc(C(=O)OCC)o2)c(O)cc1O`, 1.98% (inactive); as for `COc1ccc(N2CCN(CCCNC(=O)CCCn3c(=O)[nH]c4ccsc4c3=O)CC2)cc1`, 1.98% (inactive).
On to `Cc1oc(-c2ccc(Cl)cc2)nc1CN1CCC(C(=O)N2CCN(Cc3ccccc3)CC2)CC1`, for which the side scatter activation was 31.1% (inactive).
Same read-out and setting: as for `O=c1cc(-c2ccccc2)[nH]c2ccccc12`, the figure is 1.98% (inactive); as for `CC1CCCCN1CCNC(=O)c1cc2c(-c3ccccc3F)nn(C)c2s1` (stereo not drawn), 84.3% (inactive); as for `Cc1ccccc1-c1nc(CN2CCC(C(=O)NCCCN3CC(C)CC(C)C3)CC2)c(C)o1` (stereo not drawn), 31.1% (inactive).
`Cc1ccc(C)c(N2CCN(CCCNC(=O)Cn3cc4c(n3)CCCCC4)CC2)c1`: the side scatter activation is 0% (inactive).
The same measure, in the same setting: as for `Cn1c(=O)cc(SCC(=O)NCCCN2CCN(c3ccccc3F)CC2)c2ccccc21`, the figure is 31.1% (inactive); as for `Cc1ccc(CNc2nc3ccccc3n3nnnc23)cc1`, 40.2% (inactive); as for `Nc1ccc(-n2ccnc2)cc1`, 84.3% (inactive).
With `CCN(CC)CCNC(=O)c1ccc(N2CCCCC2)c(NS(=O)(=O)c2ccc(C)cc2)c1`, the side scatter activation is 44.4% (inactive).
The same measure, in the same setting: in the case of `Cn1c(=O)cc(OCC(=O)NCCCN2CCN(c3ccccc3F)CC2)c2ccccc21` it was 73% (inactive).
Same read-out and setting: in the case of `CCN(CC)CCCNC(=O)c1cc2c(-c3ccc(Cl)cc3)nn(C)c2s1` it was 84.3% (inactive); in that of `Cc1ccccc1-c1nc(CN2CCC(C(=O)NCc3cccnc3)CC2)c(C)o1`, 38.5% (inactive).
Same read-out and setting: in the case of `CCN(CC)CCNC(=O)c1cc2c(-c3ccc(Cl)cc3)nn(C)c2s1` it was 31.1% (inactive); in that of `O=C(c1ccccc1)c1ccc(N2CCNCC2)cc1`, 73% (inactive).
Regarding `COc1ccccc1N1CCN(Cc2cc(Br)c(O)c3ncccc23)CC1`, the side scatter activation is 1.98% (inactive).
The same measure, in the same setting: as for `COc1ccc(CCN2CCC(Nc3nc4ccccc4n3Cc3ccc(F)cc3)CC2)cc1`, the figure is 40.2% (inactive); as for `Clc1ccc(COC(Cn2ccnc2)c2ccc(Cl)cc2Cl)cc1` (stereo not drawn), 0% (inactive); as for `O=C(Cn1cc2c(n1)CCCC2)NCCCN1CCN(c2ccccc2F)CC1`, 31.1% (inactive).
Same read-out and setting: in the case of `CCn1c(=N)n(CC(O)COc2cccc(C)c2)c2ccccc21` (stereo not drawn) it was 0% (inactive); in that of `Cc1cc2c(=O)n(CC(=O)N3CCN(c4ccccc4)CC3)cnc2s1`, 84.3% (inactive).
As for `CCN(CCNC(=O)C1CCN(Cc2nc(-c3cccc(Cl)c3)oc2C)CC1)c1ccccc1`, the side scatter activation was 0% (inactive).
For `Cc1ccccc1CS(=O)(=O)CCC(=O)NCCCN1CCN(c2ccccc2F)CC1`, the side scatter activation is 31.1% (inactive).
Same read-out and setting: as for `Cc1ccccc1-c1nc(CN2CCC(C(=O)NCCCN3CCCC3)CC2)c(C)o1`, the figure is 1.98% (inactive).
Same read-out and setting: in the case of `O=C(NCCCN1CCN(c2ccc(F)cc2)CC1)c1cccc(N2CCCC2=O)c1` it was 73% (inactive); in that of `CCCOc1ccccc1C1CC(=O)Nc2cc3c(cc21)OCO3` (stereo not drawn), 0% (inactive); in that of `CCOC(=O)c1[nH]c(C)c(C(=O)N2CCc3ccccc32)c1C`, 1.98% (inactive).
The same measure, in the same setting: in the case of `CCn1c(=O)cc(SCC(=O)NCCN2CCN(Cc3ccccc3)CC2)c2ccccc21` it was 73% (inactive).
`Cc1cc(C)nc(N2CCC(C(=O)Nc3ccc(Oc4ccccc4)cc3)CC2)n1`: the side scatter activation was 40.2% (inactive).
Same read-out and setting: as for `Cn1nc(-c2ccc(Cl)cc2)c2cc(C(=O)NCCCN3CCCC3)sc21`, the figure is 84.3% (inactive); as for `CC(C)(C)c1ccc(C(O)CCCN2CCC(C(O)(c3ccccc3)c3ccccc3)CC2)cc1` (stereo not drawn), 0% (inactive); as for `CCOC(=O)c1ccccc1NC(=O)Cn1c(-c2nonc2N)nc2ccccc21`, 44.4% (inactive).
Consider `COc1ccc(-c2oc3ncn(CCN4CCOCC4)c(=N)c3c2-c2ccc(OC)cc2)cc1`, for which the side scatter activation was 44.4% (inactive).
As to `COc1ccc(-c2noc(CCC(=O)NCCCN3CCC(Cc4ccccc4)CC3)n2)cc1`, the side scatter activation is 1.98% (inactive).
Still for that read-out and setting: in the case of `COc1ccc(Nc2nc(N)nc(CN3CCC(Cc4ccccc4)CC3)n2)cc1` it was 73% (inactive); in that of `CN(CCNC(=O)C1CC(=O)N(c2ccc(F)c(Cl)c2)C1)Cc1ccccc1` (stereo not drawn), 44.4% (inactive); in that of `O=C(NCCCN1CCN(c2cccc(Cl)c2)CC1)c1cccc(N2CCCC2=O)c1`, 38.5% (inactive).
The same measure, in the same setting: in the case of `CCN1CCN(c2cc(C)c3cc(NC(=O)c4ccc(Br)o4)ccc3n2)CC1` it was 73% (inactive); in that of `Cc1nc2ncnn2c(C)c1CCC(=O)NCCCN1CCN(c2cccc(Cl)c2)CC1`, 84.3% (inactive); in that of `CCOC(=O)c1c(C)[nH]c(C(=O)COC(=O)C2CC2C)c1C` (stereo not drawn), 73% (inactive).
On the same count and under the same terms, in the case of `O=S1(=O)C=C(Sc2nc3ccccc3s2)c2ccccc21` it was 0% (inactive).

For another assay, the system named is LNCaP side scatter shift, flow cytometry, 4 days. The assay is described as above.
Details: not given
As for `CCN1CCCC1CNC(=O)C1CCN(Cc2nc(-c3cccc(Br)c3)oc2C)CC1` (stereo not drawn), the half-maximal effective concentration (EC50) (as a rule, the concentration at which the effect is half-maximal) was 1.12 µM.
Still for that read-out and setting: in the case of `CN(CC(O)COc1ccc(OCC(O)CN(C)C2CCCCC2)cc1)C1CCCCC1` (stereo not drawn) it was 4.32 µM; in that of `COc1ccc(CCn2c(=N)c(C(=O)NCc3ccco3)cc3c(=O)n4ccccc4nc32)cc1`, 7.49 µM; in that of `CCOc1cccc2cc(-c3cn4cc(C)ccc4n3)c(=O)oc12`, 20.6 µM (inactive).
The same measure, in the same setting: in the case of `Cc1cccc(-c2nsc(SCC(=O)Nc3nccs3)n2)c1` it was 12 µM (inactive); in that of `Cn1nc(-c2ccc(Cl)cc2)c2cc(C(=O)NCCCN3CCOCC3)sc21`, 5.53 µM.
On the same count and under the same terms, as for `COc1ccc(N2CCN(CCCNC(=O)CC3Oc4ccc(C)cc4NC3=O)CC2)cc1` (stereo not drawn), the figure is 27 µM (inactive).
Turning to `Cc1oc(-c2ccc(Cl)cc2)nc1CN1CCC(C(=O)NCCCN2CCOCC2)CC1`, the EC50 was 3 µM.
With `COc1ccccc1NC(=O)c1nc[nH]c1C(=O)Nc1ccccc1OC`, the concentration for a half-maximal effect (EC50) is 9.52 µM.
Still for that read-out and setting: in the case of `COc1cc2nc(N3CCN(C(=O)C4COc5ccccc5O4)CC3)nc(N)c2cc1OC` (stereo not drawn) it was 3.95 µM; in that of `CCN(CC)CC(=O)Nc1ccc(-c2nc3cc(NC(=O)CN(CC)CC)ccc3o2)cc1`, 0.83 µM; in that of `Cc1noc(/C=C/c2ccco2)c1S(=O)(=O)N1CCC(C(=O)N2CCc3ccccc3C2)CC1`, 5.2 µM.
Still for that read-out and setting: as for `Cc1ccc(OCC(O)Cn2c(=N)n(CCN3CCCCC3)c3ccccc32)cc1` (stereo not drawn), the figure is 4.11 µM.
Still for that read-out and setting: in the case of `COc1ccc(-c2noc(-c3cc(Cl)ccc3Cl)n2)cc1OC` it was 5.7 µM; in that of `Cc1cc(N2CCN(C)CC2)nc2ccc(NC(=O)c3ccc(Br)o3)cc12`, 2.79 µM; in that of `CCN(CCNC(=O)C1CCN(Cc2nc(-c3ccc(Cl)cc3)oc2C)CC1)c1ccccc1`, 2 µM.
In the case of `CN1CCN(c2cc3c(c4c2[nH]c2ccccc24)C(=O)CC(C)(C)C3)CC1`, the 50% effective concentration (EC50) is 3.65 µM.
On the same count and under the same terms, in the case of `CN(C)c1ccc(CNC2CC(C)(C)NC(C)(C)C2)cc1` it was 8.74 µM.
The same measure, in the same setting: as for `N=c1n(CCN2CCCCC2)c2ccccc2n1CC(O)COc1ccccc1` (stereo not drawn), the figure is 0.994 µM.
Same read-out and setting: in the case of `COC(=O)c1cc(-c2ccccc2)sc1NC(=O)c1cc(C)on1` it was 1.87 µM.
Take `CN1CCN(CCCNC(=O)c2cc3c(-c4ccc(Cl)cc4)nn(C)c3s2)CC1`: the EC50 was 6.41 µM.
Turning to `CCN1CCN(CCNC(=O)C2CCN(Cc3nc(-c4ccc(Cl)cc4)oc3C)CC2)CC1`, the EC50 is 16.6 µM (inactive).
Still for that read-out and setting: as for `Cc1ccccc1-c1nc(CN2CCCC(C(=O)NCCCN3CCOCC3)C2)c(C)o1` (stereo not drawn), the figure is 7.03 µM.
Regarding `Cc1cc(N2CCN(C)CC2)nc2ccc(NC(=O)c3ccc4c(c3)OCO4)cc12`, the EC50 is 10.4 µM (inactive).
